Laboratory results taken from US11053204B2, “Pyrimidinyloxy benzene derivatives as herbicides” (FMC Corporation, priority 2015, dated 2021).

Experiments:
Format in all cases: in vivo
[1] = system: ragweed (common ragweed, Ambrosia elatior); assay: Test A postemergence, visual injury rating; conditions: 0 is no effect, 100 is complete control
Text: (§1) Seeds of plant species selected from barnyardgrass (Echinochloa crus-galli), kochia (Kochia scoparia), ragweed (common ragweed, Ambrosia elatior), Italian ryegrass (Lolium multiflorum), large (Lg) crabgrass (Digitaria sanguinalis), giant foxtail (Setaria faberii), morningglory (Ipomoea spp.), pigweed (Amaranthus retroflexus), velvetleaf (Abutilon theophrasti), wheat (Triticum aestivum), and corn (Zea mays) were planted into a blend of loam soil and sand and treated preemergence with a directed soil spray using test chemicals formulated in a non-phytotoxic solvent mixture which included a surfactant.
(§2) At the same time, plants selected from these crop and weed species and also blackgrass (Alopecurus myosuroides), and galium (catchweed bedstraw, Galium aparine) were planted in pots containing the same blend of loam soil and sand and treated with postemergence applications of test chemicals formulated in the same manner. Plants ranged in height from 2 to 10 cm and were in the one- to two-leaf stage for the postemergence treatment. Treated plants and untreated controls were maintained in a greenhouse for approximately 10 days, after which time all treated plants were compared to untreated controls and visually evaluated for injury. Plant response ratings, summarized in Table A, are based on a 0 to 100 scale where 0 is no effect and 100 is complete control. A dash (-) response means no test result.

[2] = system: giant foxtail (Setaria faberii); assay: Test A postemergence, visual injury rating; conditions: 0 is no effect, 100 is complete control
Text: as §1, §2

[3] = system: pigweed (Amaranthus retroflexus); assay: Test A postemergence, visual injury rating; conditions: 0 is no effect, 100 is complete control
Text: as §1, §2

corn (Zea mays) = assay: Test A postemergence, visual injury rating; conditions: 0 is no effect, 100 is complete control
Text: as §1, §2

[4] = system: Italian ryegrass (Lolium multiflorum); assay: Test A postemergence, visual injury rating; conditions: 0 is no effect, 100 is complete control
Text: as §1, §2

[5] = system: wheat (Triticum aestivum); assay: Test A postemergence, visual injury rating; conditions: 0 is no effect, 100 is complete control
Text: as §1, §2

[6] = system: galium (catchweed bedstraw, Galium aparine); assay: Test A postemergence, visual injury rating; conditions: 0 is no effect, 100 is complete control
Text: as §1, §2

kochia (Kochia scoparia) [7] = assay: Test A postemergence, visual injury rating; conditions: 0 is no effect, 100 is complete control
Text: as §1, §2

[8] = system: barnyardgrass (Echinochloa crus-galli); assay: Test A postemergence, visual injury rating; conditions: 0 is no effect, 100 is complete control
Text: as §1, §2

[9] = system: blackgrass (Alopecurus myosuroides); assay: Test A postemergence, visual injury rating; conditions: 0 is no effect, 100 is complete control
Text: as §1, §2

[10] = system: ragweed (common ragweed, Ambrosia elatior); assay: Test A preemergence, visual injury rating; conditions: 0 to 100 scale (0 no effect, 100 complete control)
Text: as §1, §2

[11] = system: giant foxtail (Setaria faberii); assay: Test A preemergence, visual injury rating; conditions: 0 to 100 scale (0 no effect, 100 complete control)
Text: as §1, §2

[12] = system: pigweed (Amaranthus retroflexus); assay: Test A preemergence, visual injury rating; conditions: 0 to 100 scale (0 no effect, 100 complete control)
Text: as §1, §2

[13] = system: Italian ryegrass (Lolium multiflorum); assay: Test A preemergence, visual injury rating; conditions: 0 to 100 scale (0 no effect, 100 complete control)
Text: as §1, §2

kochia (Kochia scoparia) [14] = assay: Test A preemergence, visual injury rating; conditions: 0 to 100 scale (0 no effect, 100 complete control)
Text: as §1, §2

[15] = system: barnyardgrass (Echinochloa crus-galli); assay: Test A preemergence, visual injury rating; conditions: 0 to 100 scale (0 no effect, 100 complete control)
Text: as §1, §2

[16] = system: sedge, umbrella (small-flower umbrella sedge, Cyperus difformis); assay: Test B flooded paddy test, plant response rating; conditions: 250 g ai/ha; Flood; scale of 0 to 100 where 0 is no effect and 100 is complete control; 13 to 15 days
Text: (§3) At time of treatment, test pots were flooded to 3 cm above the soil surface, treated by application of test compounds directly to the paddy water, and then maintained at that water depth for the duration of the test. Treated plants and controls were maintained in a greenhouse for 13 to 15 days, after which time all species were compared to controls and visually evaluated. […] A dash (-) response means no test result.

rice (Oryza sativa) = assay: Test B flooded paddy test, plant response rating; conditions: 250 g ai/ha; Flood; scale of 0 to 100 where 0 is no effect and 100 is complete control; 13 to 15 days
Text: as §3

[17] = system: barnyardgrass (Echinochloa crus-galli); assay: Test B flooded paddy test, plant response rating; conditions: 250 g ai/ha; Flood; scale of 0 to 100 where 0 is no effect and 100 is complete control; 13 to 15 days
Text: as §3

[18] = system: ducksalad (Heteranthera limosa); assay: Test B flooded paddy test, plant response rating; conditions: 250 g ai/ha; Flood; scale of 0 to 100 where 0 is no effect and 100 is complete control; 13 to 15 days
Text: as §3

[19] = 125 g ai/ha, 0 to 100 scale, approximately 10 days

| Compound | Ragweed plant response rating (0 to 100 scale) ([1]; 125 g ai/ha) | Ragweed plant response rating (0 to 100 scale) ([1]; 500 g ai/ha) | Foxtail, Giant plant response rating (0 to 100 scale) ([2]; 125 g ai/ha) | Foxtail, Giant plant response rating (0 to 100 scale) ([2]; 500 g ai/ha) | Pigweed plant response rating (0 to 100 scale) ([3]; 125 g ai/ha) | Pigweed plant response rating (0 to 100 scale) ([3]; 500 g ai/ha) | Corn plant response rating (0 to 100 scale) (corn (Zea mays); 125 g ai/ha) | Corn plant response rating (0 to 100 scale) (corn (Zea mays); 500 g ai/ha) | Ryegrass, Italian plant response rating (0 to 100 scale) ([4]; 500 g ai/ha) | Wheat plant response rating (0 to 100 scale) ([5]; 500 g ai/ha) | Galium plant response rating (0 to 100 scale) ([6]; 500 g ai/ha) | Barnyardgrass plant response rating (0 to 100 scale) ([8]; 500 g ai/ha) | Blackgrass plant response rating (0 to 100 scale) ([9]; 500 g ai/ha) | Ragweed plant response rating ([10]; 500 g ai/ha) | Foxtail, Giant plant response rating ([11]; 500 g ai/ha) | Pigweed plant response rating ([12]; 500 g ai/ha) | Ryegrass, Italian plant response rating ([13]; 500 g ai/ha) | Kochia plant response rating (kochia (Kochia scoparia) [14]; 500 g ai/ha) | Barnyardgrass plant response rating ([15]; 125 g ai/ha) | Barnyardgrass plant response rating ([15]; 500 g ai/ha) | other results |
| --- | --- | --- | --- | --- | --- | --- | --- | --- | --- | --- | --- | --- | --- | --- | --- | --- | --- | --- | --- | --- | --- |
| N#CCOC(=O)c1c(Br)cccc1Oc1ncc(Cl)cn1 [Compound 40] | 0 | 0 | 10 | 40 | 70 | 100 | 20 | 20 | 0 | 20 | 40 | 20 | 20 | 0 | 100 | 100 | 0 | 90 | 0 | 50 | Ryegrass, Italian plant response rating (0 to 100 scale) ([4]; 125 g ai/ha): 0; Wheat plant response rating (0 to 100 scale) ([5]; 125 g ai/ha): 0; Galium plant response rating (0 to 100 scale) ([6]; 125 g ai/ha): 30; Kochia plant response rating (0 to 100 scale) (kochia (Kochia scoparia) [7]; 125 g ai/ha): 70; Kochia plant response rating (0 to 100 scale) (kochia (Kochia scoparia) [7]; 500 g ai/ha): 100; Barnyardgrass plant response rating (0 to 100 scale) ([8]; 125 g ai/ha): 0; Blackgrass plant response rating (0 to 100 scale) ([9]; 125 g ai/ha): 10; Ragweed plant response rating ([10]; 125 g ai/ha): 0; Foxtail, Giant plant response rating ([11]; 125 g ai/ha): 20; Pigweed plant response rating ([12]; 125 g ai/ha): 40; Ryegrass, Italian plant response rating ([13]; 125 g ai/ha): 0; Kochia plant response rating (kochia (Kochia scoparia) [14]; 125 g ai/ha): 60 |
| O=C(OCCC(F)(F)F)c1c(F)cccc1Oc1ncc(Br)cn1 [Compound 41] | 0 | 10 | 0 | 0 | 90 | 90 | 0 | 0 | 0 | 0 | 0 | 0 | 0 | 80 | 0 | 40 | 0 | 30 | 0 | 0 | Ryegrass, Italian plant response rating (0 to 100 scale) ([4]; 125 g ai/ha): 0; Wheat plant response rating (0 to 100 scale) ([5]; 125 g ai/ha): 0; Galium plant response rating (0 to 100 scale) ([6]; 125 g ai/ha): 0; Kochia plant response rating (0 to 100 scale) (kochia (Kochia scoparia) [7]; 125 g ai/ha): 20; Kochia plant response rating (0 to 100 scale) (kochia (Kochia scoparia) [7]; 500 g ai/ha): 60; Barnyardgrass plant response rating (0 to 100 scale) ([8]; 125 g ai/ha): 0; Blackgrass plant response rating (0 to 100 scale) ([9]; 125 g ai/ha): 0; Ragweed plant response rating ([10]; 125 g ai/ha): 50; Foxtail, Giant plant response rating ([11]; 125 g ai/ha): 0; Pigweed plant response rating ([12]; 125 g ai/ha): 30; Ryegrass, Italian plant response rating ([13]; 125 g ai/ha): 0; Kochia plant response rating (kochia (Kochia scoparia) [14]; 125 g ai/ha): 30 |
| O=C(OCCC(F)(F)F)c1c(F)cccc1Oc1ncc(Cl)cn1 [Compound 42] | 0 | 0 | 0 | 0 | 80 | 90 | 20 | 30 | 0 | 0 | 0 | 0 | 0 | 0 | 0 | 30 | 0 | 0 | 0 | 0 | Ryegrass, Italian plant response rating (0 to 100 scale) ([4]; 125 g ai/ha): 0; Wheat plant response rating (0 to 100 scale) ([5]; 125 g ai/ha): 0; Galium plant response rating (0 to 100 scale) ([6]; 125 g ai/ha): 0; Kochia plant response rating (0 to 100 scale) (kochia (Kochia scoparia) [7]; 125 g ai/ha): 30; Kochia plant response rating (0 to 100 scale) (kochia (Kochia scoparia) [7]; 500 g ai/ha): 60; Barnyardgrass plant response rating (0 to 100 scale) ([8]; 125 g ai/ha): 0; Blackgrass plant response rating (0 to 100 scale) ([9]; 125 g ai/ha): 0; Ragweed plant response rating ([10]; 125 g ai/ha): 0; Foxtail, Giant plant response rating ([11]; 125 g ai/ha): 0; Pigweed plant response rating ([12]; 125 g ai/ha): 0; Ryegrass, Italian plant response rating ([13]; 125 g ai/ha): 0; Kochia plant response rating (kochia (Kochia scoparia) [14]; 125 g ai/ha): 0 |
| O=C(OCCCC(F)(F)F)c1c(Oc2ncc(Cl)cn2)cccc1C(F)(F)F [Compound 65] | 10 | 30 | 40 | 90 | 90 | 100 | 10 | 20 | 0 | 0 | 70 | 70 | 40 | 80 | 100 | 100 | 30 | 90 | 30 | 100 | Plant response rating, Sedge, Umbrella [16]: 85; Plant response rating, Rice (rice (Oryza sativa)): 0; Plant response rating, Barnyardgrass [17]: 0; Plant response rating, Ducksalad [18]: 70; Ryegrass, Italian plant response rating (0 to 100 scale) ([4]; 125 g ai/ha): 0; Wheat plant response rating (0 to 100 scale) ([5]; 125 g ai/ha): 0; Galium plant response rating (0 to 100 scale) ([6]; 125 g ai/ha): 20; Barnyardgrass plant response rating (0 to 100 scale) ([8]; 125 g ai/ha): 30; Blackgrass plant response rating (0 to 100 scale) ([9]; 125 g ai/ha): 20; Ragweed plant response rating ([10]; 125 g ai/ha): 0; Foxtail, Giant plant response rating ([11]; 125 g ai/ha): 100; Pigweed plant response rating ([12]; 125 g ai/ha): 100; Ryegrass, Italian plant response rating ([13]; 125 g ai/ha): 10; Kochia plant response rating (kochia (Kochia scoparia) [14]; 125 g ai/ha): 60 |
| CCOCc1c(Br)cccc1Oc1ncc(Cl)cn1 [Compound 106] | – | 0 | – | 70 | – | 20 | – | 10 | 0 | 0 | 10 | 100 | 20 | 0 | 100 | 70 | 10 | 90 | 0 | 100 | Plant response rating, Sedge, Umbrella [16]: 0; Plant response rating, Rice (rice (Oryza sativa)): 0; Plant response rating, Barnyardgrass [17]: 0; Plant response rating, Ducksalad [18]: 0; Ragweed plant response rating [1, 19]: 0; Foxtail, Giant plant response rating [2, 19]: 10; Pigweed plant response rating [3, 19]: 10; Corn plant response rating (corn (Zea mays); [19]): 0; Ryegrass, Italian plant response rating [4, 19]: 0; Wheat plant response rating [5, 19]: 0; Galium plant response rating [6, 19]: 0; Barnyardgrass plant response rating [8, 19]: 40; Blackgrass plant response rating [9, 19]: 0; Plant response rating, Ragweed ([10]; 125 g ai/ha): 0; Plant response rating, Foxtail, Giant ([11]; 125 g ai/ha): 80; Plant response rating, Pigweed ([12]; 125 g ai/ha): 30; Plant response rating, Ryegrass, Italian ([13]; 125 g ai/ha): 0; Plant response rating, Kochia (kochia (Kochia scoparia) [14]; 125 g ai/ha): 30 |
